# Results: patent US9586994B2, “CD44V6-derived peptides for treating breast cancer” (KARLSRUHER INSTITUT FÜR TECHNOLOGIE, priority 2012, dated 2017)
# No end group written: not given here. MeO‑PEG‑COOH = methoxy-PEG carboxylic acid, 750 or 2000 Da
# Key:
# [1] = tested on: CD44v6; assay: HGF-induced activation of Met and ERK in L3.6pl cells (Western blot); format: cell-based, human
# Description: (§1) Serum-starved cells (24 hours) were induced with the growth factor HGF (10 ng/mL) at 37° C. for 5 minutes. Where indicated, the cells were treated with peptides (100 ng/ml) prior to induction at 37° C. for 10 minutes (100 ng/mL CD44v6 peptide or control peptide). Following the induction with HGF, cells were washed with ice-cold phosphate-buffered saline (PBS). To detect activated Met and ERK, cells were lysed in sodium dodecyl sulfate (SDS)—sample buffer containing 100 mM dithiothreitol (DTT), boiled and subjected to western blot analysis using antibodies against phospho-Met and ERK. The loading controls were performed on the same blot after stripping (62.5 mM Tris, pH 6.8, 2% SDS, 0.8% DTT) by probing with the Met respectively Erk antibody. Blots were stained using the enhanced chemiluminescence system (Thermo Fisher Scientific, Schwerte, Germany). Bands in western blot analysis were quantified with the program Image J (National Institutes of Health).
# To expand the studies to human pancreatic tumors, the highly metastatic human pancreatic carcinoma cells L3.6pl (Bruns, et al. Neoplasia (1999), 1(1):50-62) were investigated. These cells originate from the […] cells that have been passaged several times in the liver and the pancreas, a step that rendered them more and more metastatic. It was confirmed that Met is dependent on CD44v6 for its activation and signaling in these cells (FIG. 19A). The L3.6pl cells were treated with HGF in the presence or absence of a human v6 peptide of SEQ ID NO: 2 or SEQ ID NO:6 and Met activation and downstream signaling to ERK was measured. Phosphorylation of both Met and ERK was inhibited by the human v6 peptide. Treatment with a corresponding rat v6 peptide (ctrl peptide, SEQ ID NO: 10 or 11) had no influence on receptor activation and signal transduction (FIG. 19A).
# The contribution of CD44v6 to Met signaling in the human epithelial pancreatic cancer cells L3.6pl (derived from Colo 357), the cervix carcinoma cells HeLa and the colon cancer cells HT29 were analysed using the CD44v6 peptide (v6 14mer; v6 5mer tested as well, data not shown).
# [2] = tested on: BSp73ASs6 cells; assay: Rat syngeneic model, subcutaneous BSp73ASs6 tumors, treatment from one week (metastasis formation); format: in vivo; conditions: rats, s.c. BSp73ASs6
# Description: In the case of the rat syngeneic model, 1×10^6 pancreatic cells (BSp73AS and its transfectants) were subcutaneously injected into the right posterior flank of the animals. Tumors developed for four weeks. During this time period animals injected with BSp73ASs6 cells expressing Met-shRNA or control-shRNA received doxycycline in the drinking water. At the end of the experiment, primary tumors were isolated. Lungs and axillary lymph nodes were analyzed. The tissues were incubated for 24 h in a zinc-fixative (0.5 g calcium acetate, 5.0 g zinc acetate, 5.0 g zinc chloride, in 1 L 0.1 M Tris pH 7.4) and embedded in paraffin for further analysis. In case of peptide or antibody treatment tumors developed for one week before the first treatment. Where indicated, animals received 200 μg of peptide or antibody per injection three times per week for four weeks. Tumor growth was monitored weekly using a caliper Animals were killed at day 28 or 30 after start of the treatment.
# For histomorphological analysis paraffin-embedded sections of lungs were stained with hematoxylin and eosin and periodic acid-Schiff (H&E or PAS). Serial sections of the whole tissue blocks were examined by analyzing slices every 20 μm; in each slice, the presence and the extension of the metastatic deposit was assessed, according to the procedure routinely used by pathologists to evaluate the presence of micrometastases.
# Rat peptides had the sequences KEKWFENEWQGKNP (SEQ ID NO: 10) and NEWQG (SEQ ID NO: 11). BSp73ASs6 cells were subcutaneously injected into syngeneic rats and rat CD44v6 peptides of SEQ ID NO: 10 or SEQ ID NO: 11 (or mouse control peptides) or the CD44v6 antibody (or IgGs as a control) were injected intra-tumoral or intravenously three times a week. […] This is compatible with the fact that also BSp73AS cells or BSp73ASv1-10Δv6 cells can induce the formation of primary tumors similarly to the v6 transfectants.
# [3] = tested on: HT29 colon cancer cells; assay: Scatter assay, HGF-induced HT29 colon cancer cells; format: cell-based, human; conditions: HGF 10 ng/ml, pre-incubated with peptide
# Description: A scatter assay was performed additionally. HT29 colon cancer cells were grown in medium containing 10% FCS. One day after seeding, the cells were starved. On the third day, the cells were induced with HGF (10 ng/ml) and pre-incubated with either no peptide, ctrl-peptides (SEQ ID NO: 15), non-pegylated v6-peptides (SEQ ID NO: 11) or the pegylated peptides, namely PEG-rat control peptide and PEG-rat CD44v6 peptide.
# [4] = tested on: L3.6pl cells; assay: Human orthotopic pancreatic cancer model, L3.6pl cells in nude mice, treatment from day 7; format: in vivo, mouse; conditions: L3.6pl orthotopic model; 5mer instead of 14mer
# Description: In the case of the human orthotopic model, L3.6pl pancreatic carcinoma cells (passage 24-26) were suspended in Hank's balanced salt solution (Invitrogen, Karlsruhe, Germany) after trypsinization. The cells were injected orthotopically in the pancreas of male nude mice as described (Bruns C J et al. (1999) Neoplasia 1(1):50-62). Two groups of 15 mice each were injected i.p. 7 days later with either the human v6 peptide respectively rat control peptide (20 μg). For all experiments described and depicted herein either the rat 14mer control peptide or the human 14mer peptide were used. All experiments were then repeated with the rat 5mer control peptide or the human 5mer peptide (N-R-W-H-E, SEQ ID NO: 2). […] The injection was repeated three times per week for 21 days. Two days after the last treatment the animals were killed.
# 7 μm thick paraffin sections were deparaffinized and rehydrated. For P-Met staining antigen unmasking was achieved by boiling the slides in 1 mM EDTA pH 8.0 followed by incubation for 15 minutes at a sub-boiling temperature, for CD31 staining the sections were treated with Proteinase K (8 μg/ml) for […] at 37° C. For immunofluorescence staining of P-Met, unspecific binding was blocked with 5% goat serum (DAKO, Glostrup, Denmark) (diluted in 1×PBS/0.3% Triton X-100) for 60 minutes. In the case of immunohistochemistry, endogenous peroxidases were at first blocked with 3% H2O2 in PBS followed by incubation with biotin blocking system (Dako, Glostrup, Denmark) and then unspecific binding was inhibited by incubation with 5% FCS in PBS was used for blocking. The sections were incubated with the P-Met antibody (D26, dilution 1:50 in 1×PBS/1% BSA/0.3% Triton X-100), Met antibody (C-28, dilution 1:50), GFP antibody (sc-101525, dilution 1:50) or CD31 antibody (5 μg/ml) over night or VFF18 (5 μg/ml) o/n at 4° C. After washing in PBS the sections were incubated with Alexa Fluor R 546 goat anti-rabbit (in case of immunofluorescence P-Met and Met staining, dilution 1:500) or a biotinylated secondary antibody (for immunohistochemical stainings rabbit anti-rat antibody for VFF18 and CD31, goat anti-rabbit for P-Met, cleaved Caspase-3 and cleaved Caspase-8 and rabbit anti-mouse for GFP, dilution 1:500) for 45 minutes. For DAB staining the sections were treated with a streptavidin-peroxidase conjugate (Dako, Glostrup, Denmark) and developed with DAB (3,3′-diaminobenzidine) substrate system (3,3′-diaminobenzidine; Biozol, Eching, Germany) For immunofluorescence DAPI was used for nuclear staining.
# To test the effect of the peptide on tumor growth and metastasis formation the L3.6pl cells were orthotopically injected into the pancreas of immunosuppressed mice (NCI-nu). […] The primary tumor expresses a high amount of CD44v6 (FIG. 19B). […] Indeed, human HGF in a concentration of 3375 pg/ml was detected in the supernatant (see Material and Methods) after 5 days of culture (data not shown).
# [5] = tested on: CD44v6; assay: Activation assay with pegylated peptides: HGF-induced Met and ERK activation in BSp73ASs6 cells; format: cell-based, rat
# Description: The PEG-control peptide and PEG-rat CD44v6 peptide were compared for their ability to block HGF induced activation of the receptor tyrosine kinase Met and ERK.
# Rat pancreatic cancer cells BSp73ASs6 (also designated Ass6) were incubated for 10 min at 37° C. with either ctrl-peptides (SEQ ID NO: 15), non-pegylated v6-peptides (SEQ ID NO: 11) and increasing concentrations of the pegylated peptides, namely PEG-rat control peptide and PEG-rat CD44v6 peptide, before induction with HGF (10 ng/ml; 5 min at 37° C.).
# Activation of ERK and Met was determined by standard SDS and Western Blotting techniques using a phospho-Met and phospho-Erk specific antibody (phospho-Met clone D16 cell signaling, phospho-Erk p42/44 cell signaling)
# [6] = tested on: L3.6pl cells; assay: Staining of fixed L3.6pl cells with DY681-labeled peptides (confocal microscopy); format: binding, human; conditions: DY681-labeled peptide
# Description: (§2) ASs6 or L3.6pl cells were seeded at 5,000 cells/well of a Lab-TekR Chamber Slide™ (Nunc, Napierville, Ill., USA). On the following day the cells were washed with cold PBS and fixed with 4% Formalin for 30 min at RT. Unspecific binding was blocked with 1% BSA in PBS for 1 hour at RT. The cells were incubated for 1 hour with the DY681-labeled peptides. After three washing steps with PBS the cover slips were mounted with Fluorescence Mounting Medium (Dako, Glostrup, Denmark) and the immunofluorescence was measured by a laser scanning confocal microscope Leica TCS2 SP2 (Exton, Pa., USA) and processed using Leica confocal software. A 20× objective was used for imaging.
# [7] = tested on: CD44v6; assay: HGF-induced Met/Erk activation in BSp73ASs6 cells with DY681-labeled peptides; format: cell-based, rat; conditions: FIG. 18A right side, activation of Erk determined
# Description: as §1
# In order to test the specificity of the binding of CD44v6 peptides to the tumor site and to the metastases and to estimate the binding kinetics in vivo, near infrared fluorescence (NIRF) imaging with the Optix MX2 was. For this purpose two CD44v6 peptides were labeled with the fluorophore DY681: a rat specific one, rv6 pep Dy681 and a mouse specific one, mv6 pep Dy681, as a control.
# [8] = tested on: BSp73ASs6 tumors; conditions: rat
# Description: To avoid autofluorescence of fur, rats were shaved around the tumor prior to imaging. Subsequently, animals were anesthetized using 2% isoflurane and gently fixed on the devices' heated plate for the entire time of data acquisition. To reduce fluorescence background, rats were fed with chlorophyll-reduced food (Provimi Kliba AG, Kaiseraugst, Switzerland) for one week prior NIRF imaging. All in vivo analyses were preceded by native scans of animals without any injection of the fluorescent probe. For in vivo analysis, rats were injected with 200 μg DY681-labeled rat v6 11 mer peptide or the human v6 11 mer peptide via the tail vein. Controls were injected with the equal amount of DY681-labeled mouse v6 11mer peptide. […] All peptides were labeled with the fluorescent dye DY681. Data were acquired at the indicated time after injection of the peptides. […]
# DY681 fluorescence was measured using excitation at 670 nm in combination with a 700 nm long-pass emission filter. […] Data sets were analyzed with OptiView (ART).
# For in vivo experiments, BSp73ASs6 cells were injected subcutaneously into syngeneic rats. […] The accumulation of the fluorescence was measured in the tumor region by Optix MX2 at the indicated time points. […] Then, in vivo binding kinetics of the Dy681-labeled v6 peptides to the subcutaneous tumors were determined. […]
# [9] = tested on: BSp73ASs6 cells; assay: Staining of fixed BSp73ASs6 cells with DY681-labeled peptides (confocal microscopy); format: binding, rat; conditions: 1 hour with DY681-labeled peptide
# Description: as §2
# [10] = tested on: L3.6pl tumors; assay: In vivo and ex vivo imaging (Pearl Imager) of mice with L3.6pl tumors; set-up: species or system mouse; conditions: 24 h after injection
# Description: In vivo imaging of the mice with the L3.6pl tumors was performed using the Pearl™ Imager (LI-COR Biosciences, Bad Homburg, Germany) The system uses two lasers (685 and 785 nm) for excitation and a charge-coupled device detector for signal detection. The laser excitation enables a deep tissue penetration. With the near-infrared detection a high sensitivity due to the reduced tissue auto-fluorescence is achieved. In order to standardize the images we made use of the Pearl Cam Software. The animals were fed with chlorophyll-reduced food to reduce the fluorescence background one week before imaging (Regime 210, safe-diets, Augy, France). Prior to imaging the mice were anesthetized with 2.0% isoflurane. Animals were placed on the heated plate of the imager and continuous delivery of isoflurane was achieved through a nose cone in the imaging drawer. Images were captured at white light, 700 and 800 nm Animals were imaged prior to i.v. peptide injection and 24 h after injection with either DY681-labeled human v6 peptide or DY681-labeled rat v6 peptide as control Immediately after each imaging session animals were killed, tumor, liver and spleen isolated and scanned ex vivo at white light, 700 and 800 nm.
# Then, the specificity of binding of the human CD44v6 peptide to the tumor in vivo was examined using the small animal imaging system Pearl Impulse. […]
# [11] = peptide before induction with 10 ng/ml HGF
# [12] = peptide 10 min 37° C., HGF 10 ng/ml 5 min
substance,measurement,setting,value
"NEWQG [SEQ ID NO: 11, rat CD44v6 5mer peptide]",HGF-induced phosphorylation/activation of ERK,[1]; [11],no influence
same,HGF-induced phosphorylation/activation of Met,[1]; [11],no influence
same,Metastasis (axillary lymph nodes and lungs),"[2]; 200 μg per injection i.t. or i.v., three times a week, four weeks, start after one week",completely inhibited metastasis
same,Metastasis and micro-metastasis in lung sections (PAS and H&E histology),[2]; 200 μg three times a week,no metastasis nor micro-metastasis could be detected
same,Outgrowth of primary tumors,[2]; treatment for 28 days,not influenced
same,Dissociation and migration of cells away from cell cluster (scatter),[3],lead to dissociation and migration of cells away from these cell cluster
same,"Outcome of all experiments repeated with 5mer peptides, compared with 14mer",[4],same results as for the 14mer peptides
"PEG-NEWQG ({MeO‑PEG‑COOH}-NEWQG; also: PEG 750 or 2000 Da) [PEG-rat CD44v6 peptide, rat 5mer NEWQG coupled to MeO-PEG-COOH (750 Da and 2000 Da)]","Efficiency of inhibition of ERK, pegylated vs. non-pegylated peptides",[5]; HGF 10 ng/ml,even more efficient
same,HGF dependent activation of ERK,[5]; [12],efficient in inhibiting
same,HGF dependent activation of Met,[5]; [12],efficient in inhibiting
same,Dissociation and migration of cells away from cell cluster (scatter),[3],lead to dissociation and migration of cells away from these cell cluster
"WFENEWQGKNP (also: DY681 fluorescent dye label) [rv6 pep Dy681, rat 11mer labeled with the fluorescent dye DY681]",Binding to L3.6pl cells in cell culture,[6],not
same,Met activation (HGF-induced) with DY681-labeled peptides,[7],inhibited Met activation
same,Ex vivo fluorescence in excised tumors and lungs,[8],Fluorescence intensities could only be detected in tumors and in specific areas of the lungs
same,Binding to BSp73ASs6 cells in tissue culture,[9],bound to BSp73ASs6 cells
"WFGNRWHEGYR (also: DY681 fluorescent dye label) [labeled human v6 peptide, human 11mer labeled with the fluorescent dye DY681]",Met activation (HGF-induced) with DY681-labeled peptides,"[1]; FIG. 20A right side, activation of Erk determined",inhibited Met activation
same,Binding to L3.6pl cells in cell culture,[6],bound to these cells in cell culture
same,"Ex vivo fluorescence of isolated organs (tumor, liver, spleen)",[10]; mice with L3.6pl tumors,binding not only to primary tumors but also to areas of the liver
same,Accumulation of fluorescence in the tumor in vivo,"[10]; mice with orthotopic L3.6pl tumors, 20 μg i.v.",accumulated specifically in the tumor
